Laboratory results taken from paper PMC6396024, “Artemin and an Artemin-Derived Peptide, Artefin, Induce Neuronal Survival, and Differentiation Through Ret and NCAM” (Frontiers in Molecular Neuroscience, 2019).
Bridge positions count the residues as written; N and C are the ends. Ends that are not written are not given here. I, II: the chains in the order shown.

Legend:
RET = RET phosphorylation assay in PC12-E2 cells; format: cell-based; details: PC12-E2, 10 min; ARTN 2.1 nM, artefin 12.64 μM; phosphotyrosine/total RET by immunoblot; control = 100%
Description: The pheochromocytoma cell line PC12-E2 (gift from Dr. Klaus Seedorf, Hagedorn Research Institute, Gentofte Municipality, Denmark) was propagated in Dulbecco’s modified Eagle’s medium (DMEM) supplemented with 5% (v/v) fetal calf serum (FCS), 10% (v/v) horse serum (HS), 1% (v/v) glutamax, 100 U/ml penicillin, and 100 μg/ml streptomycin. Cells were grown at 37°C in a humidified atmosphere containing 5% CO2.
Phosphorylation of RET was assayed in PC12-E2 cells. Cells were seeded at a density of 7 × 10^4 cells/cm^2 in 6 cm cell culture dishes (Nunc) and grown for 24 h. Cells were then grown in starvation medium (growth media with FCS switched to 1%) for 4 h before being stimulated with recombinant human ARTN (2.1 nM) or artefin (12.64 μM) for 10 min. Non-stimulated cells served as a control. Cell lysates were separated by SDS-polyacrylamide gel electrophoresis (SDS-PAGE) and transferred to an Immobilon-P membrane (Millipore, Billerica, MA, United States). Membranes were stained with mouse anti-phosphotyrosine antibody (BD Transduction Lab, New York City, NY, United States; 1:500) or RET (goat anti-mouse antibody, R&D systems, 1:500), followed by incubation with HRP-conjugated anti-mouse IgG. […] RET phosphorylation was determined as the ratio between phosphorylated and total RET. […]

[1] = tested on: FGFR; cerebellar granule neurons (CGNs); experiment: Neurite outgrowth in CGNs transfected with dominant negative FGFR (dnFGFR); format: cell-based, Wistar rat; details: 24 h, ARTN 0.21 nM or artefin 1.4 μM
Description: Cerebellar granule neurons (CGNs) were prepared from 7-day-old Wistar rat pups (Charles River Laboratories, Sulzfeld, Germany) as previously described ([Schousboe et al., 1989]). Briefly, pups were decapitated, and the cerebellum was removed and cleared from blood vessels and meninges in ice-cold modified Krebs-Ringer buffer. The cerebellum was dissociated by chopping and trypsinization. Cells were washed in Krebs-Ringer buffer containing DNAse I (Sigma, St. Louis, MO, United States) and soybean trypsin inhibitor (Sigma) to stop trypsinization, and the remaining tissue pieces were pelleted by centrifugation. […]
To estimate neurite outgrowth, neurons were fixated 24 h after stimulation and stained with rabbit anti-growth-associated-protein-43 (GAP-43) antibody (Chemicon International, Inc., Temecula, CA, United States) or anti-GFP antibody (for transfection experiment) overnight at 4°C followed by incubation with secondary Alexa-conjugated goat anti-rabbit antibodies (Invitrogen, Taastrup, Denmark). In case of experiments with plasmid transfection, the transfection efficiency was ca. 20% of total cells and the neurite outgrowth was evaluated only in GFP-positive, i.e., transfected, cells. […]

For “I: RSPHDLSLASLLGAGKK-NH2 / II: RSPHDLSLASLLGAGK / III: RSPHDLSLASLLGAG / IV: RSPHDLSLASLLGAG (amide I:16-IV:C, I:17-II:C, II:16-III:C; C-terminus assumed) [artefin]”, the “RET phosphorylation compared to unstimulated control” value (RET) was roughly 500% and the “neurite outgrowth effect in CGNs expressing dnFGFR” value [1] was “abolished in CGNs expressing dnFGFR”.

B1: recombinant human Artemin (ARTN) (ligand, UniProt Q5T4W7 108-220, looked up)
chain: AGGPGSRARAAGARGCRLRSQLVPVRALGLGHRSDELVRFRFCSGSCRRARSPHDLSLASLLGAGALRPPPGSRPVSQPCCRPTRYEAVSFMDVNSTWRTVDRLSATACGCLG
notes: Artemin (ARTN), human, UniProt D3DPX9; source: bought: R&D Systems
In the case of B1, the “RET phosphorylation compared to unstimulated control” value (RET) is reported as roughly 600% and the “neurite outgrowth effect in CGNs expressing dnFGFR” value [1] is reported as “abolished in CGNs expressing dnFGFR”.
